Literature values, collected in patent US20210268080A1, “IMMUNE STIMULATING COMPOSITIONS FOR THE TREATMENT AND REVENTION OF INFECTIONS WITH INTRACELLULAR PATHOGENS” (priority 2018, published 2021).

System: Trypanosoma cruzi

Compound: O=C(Cn1ccnc1[N+](=O)[O-])NCc1ccccc1 [benznidazole]
- onset of heart disease (adults with chronic Chagas infections): slow the onset
- cure rate (children aged six to 12 years with chronic disease): about 60%
- patients who fail to complete the drug regimen due to toxicities (months-long regimen): ~20%
- serum parasite detection (patients with established Chagas cardiomyopathy): significantly reduced
- cardiac clinical deterioration (patients with established Chagas cardiomyopathy, five years of follow-up): did not significantly reduce

Compound: CC[C@@H]([C@H](C)O)n1ncn(-c2ccc(N3CCN(c4ccc(OC[C@@H]5CO[C@@](Cn6cncn6)(c6ccc(F)cc6F)C5)cc4)CC3)cc2)c1=O [posaconazole]
- efficacy in human studies (human, in vivo): limited efficacy
